Measured values: paper PMC6240685, “Strong Inhibitory Effect, Low Cytotoxicity and High Plasma Stability of Steroidal Inhibitors of N-Methyl-D-Aspartate Receptors With C-3 Amide Structural Motif” (Frontiers in Pharmacology, 2018)

Tested on: GABARs
Assay: Inhibition of native GABAR responses in cultured hippocampal neurons
Assay type: cell-based, rat
Description: FIGURE 8 The effect of compound 6 on peak and steady-state responses of native NMDARs, AMPARs, and GABARs. (A) Examples of traces obtained from cultured hippocampal neurons. Compound 6 (10 μM) was pre-applied in the absence of agonists followed by co-application with NMDA (100 μM), AMPA (100 μM), and GABA (5 μM) (duration of agonist and steroid application is indicated by filled and open bars, respectively). (B) Bar graph represents the mean values of relative changes in the peak (black columns) and steady-state (red columns) responses of native NMDARs, AMPARs, and GABARs recorded in the continuous presence of 10 μM compound 6. Error bars represent SD from five independent measurements. Asterisks mark significance at the level of P < 0.05 (Paired t-test). […]
Electrophysiological experiments were performed on HEK293 cells transfected with plasmids encoding rat GluN1-1a/GluN2A-D and GFP genes as described previously, ([Petrovic et al., 2005]; [Cais et al., 2008]; [Korinek et al., 2010]) or on primary hippocampal neurons prepared from P0–P1 rats, plated on collagen/poly-D-lysine-coated glass coverslips at a density of ∼50,000 cells/cm^2, and grown in Neurobasal A medium with B27 Supplement (Gibco). […] Agonist-induced responses were low-pass filtered at 2 kHz, digitally sampled at 5 kHz, and analyzed with pClamp software version 10.5 (Molecular Devices). […]

C[C@@]12CCC[C@H]1[C@@H]1CC[C@@H]3C[C@H](NC(=O)[C@@H](N)CC(=O)O)CC[C@]3(C)[C@H]1CC2 [Compound 6, (S)-3-amino-4-(((3R,5R,8S,9S,10S,13S,14S)-10,13-dimethylhexadecahydro-1H-cyclopenta[a]phenanthren-3-yl)amino)-4-oxobutanoic acid]
IC50 (5 μM GABA, hippocampal neurons): 17 ± 0.2 µM
inhibition of steady-state vs peak response, GABARs (10 μM compound present continuously, GABA 5 μM): more efficient inhibitor of tonically activated receptors at the steady–state
